Where two headings read alike, the source gives them in different places.

One experiment concerns EOL-1. The experiment can be described thus: EOL-1 cell assay. The note with it: Homo sapiens, EOL1; Table 3. It counts as cell-based.
Another experiment addresses BaF3 PIM1 cells (Homo sapiens, UniProt P11309). The experiment in a line: BaF3 PIM1 cell proliferation (Cell Titer Glo). It counts as cell-based.
The next experiment concerns the target BaF3 PIM2 cells (Homo sapiens, UniProt Q9P1W9). The experiment can be described thus: BaF3 PIM2 cell proliferation (Cell Titer Glo). It is filed as cell-based. The gist of the method: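 BaF3 cells stably transfected with PIM2 were cultured in RPMI with 10% FBS, 2 mM L-Glutamine and 250 μg/mL G418, then plated at 5 k/well in 45 μL/well of a 384-well plate. Test compound was added at 5 μL/well, cells incubated overnight, and viability measured by luminescence after 30 minutes with Cell Titer Glo (50 μL/well).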
A general note: ATP-based viability assays read luminescence as a measure of living cells.

A further experiment deals with MM1.S cells. The experiment can be described thus: MM1.S cell proliferation, 72 hours (Cell Titer Glo). It counts as cell-based. The note with it: Homo sapiens. The gist of the method:
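BaF3 parental cells (2 k/well, with 2 ng/mL mIL-3) were treated overnight, and MM1.S cells (10 k/well) were treated for 72 h at 37 °C. Viability was read by CellTiter-Glo luminescence. IC50/EC50 values were calculated from the luminescence data.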

The next experiment deals with BaF3 parental cells. The experiment can be described thus: BaF3 parental cell proliferation (Cell Titer Glo). It counts as cell-based. The note with it: Mus musculus, Table 3. The protocol:
BaF3 parental line was obtained from the DSMZ repository. BaF3 lines transfected with PIM1 or PIM2 were generated. Mouse IL-3 was purchased from R&D Systems. G418 was purchased from Clontech. Media for BaF3 parental line contained RPMI, 10% FBS, 2 mM L-Glutamine, 2 ng/mL mIL-3. Media for BaF3 PIM1 & 2 lines contained RPMI, 10% FBS, 2 mM L-Glutamine, […]. Media for MM1.S line contained RPMI, 10% FBS, 2 mM L-Glutamine.
BaF3 parental cells, BaF3 PIM1 cells, BaF3 PIM2 cells, and MM1.S cells were seeded at 2 k/well, 5 k/well, 5 k/well, and 10 k/well respectively, in a 384-well plate, at 45 μL/well. Test compound was added at 5 μL/well. BaF3 cells (parental and transfected) were incubated overnight, while MM1.S cells were incubated for 72 hours at 37° C., 5% CO2. Cell Titer Glo Reagent (Promega) was added at 50 μL/well, the plates were incubated for 30 minutes, and their luminescence read on an HT Analyst. IC50/EC50 values for the test compound were calculated.

Experiment [1] has as its system multiple myeloma cell line KMS11. The experiment can be described thus: Cell Titer Glo proliferation and survival assay, KMS11 and other multiple myeloma cell lines. It counts as cell-based. The note with it: Homo sapiens, KMS-11; single agent; ten multiple myeloma cell lines tested; read-out: IC50 against myeloma cell lines, single agent. An excerpt: The results obtained here are representative of a total of ten multiple myeloma cell lines tested.

Experiment [2] deals with bone marrow aspirate samples from multiple myeloma patients. The experiment can be described thus: Primary cancer cell isolates from bone marrow aspirates, apoptosis. It counts as cell-based, human. The note with it: 0.3 or 1.0 micromolar; two of four cases. The protocol:
Shown in FIG. 2 are a summary of Combination Index values for Compound 3 in combination with different agents. The values shown were calculated at the ED50 of the dose response curves which were similar in nature to those exemplified in FIG. 1. Each dot in the plot represents the test results obtained with a different multiple myeloma cell line with a different combination of test agents, including Compound 3 plus a second agent as labeled on the abscissa. The horizontal line on the plot itself indicates the mean of all CI values for a given test agent. Combinations of Compound 3 with clinical standard of care chemotherapeutic agents including dexamethasone, lenalidomide, bortezomib, and melphalan produced variable results wherein CI values between about 0.1 and about 1 were obtained, with means generally greater than about 0.5. Compared to these clinically active agents, unexpectedly uniform and unexpectedly potent combination test results were obtained for Compound 3 in combination with Formula A, in which the majority of calculated CI values were less than about 0.2 and the mean across all cancer cell lines tested was about 0.2. In addition to these findings, bone marrow aspirate samples from multiple myeloma patients […] to test Formula A and Compound 3 singly and in combination on these primary cancer cell isolates.

In experiment [3] the test system is RPMI 8226.x1 multiple myeloma xenografts. The experiment in a line: RPMI 8226.x1 multiple myeloma xenograft. The note with it: Formula A 75 mg/kg po qd x21, day 27. It is filed as in vivo, SCID Beige mice. The protocol: (§1) The efficacy of the combinations of the invention may be measured in vivo by implanting allografts or xenografts of cancer cells in rodents and treating the tumor-bearing animals with the combinations. Variable results are to be expected depending on the cell line, the presence or absence of certain mutations in the tumor cells, the sequence of administration of a formula I compound and chemotherapeutic agent, dosing regimen, and other factors. Subject mice were treated with drug(s) or control (Vehicle) and monitored over several weeks or more to measure the time to tumor doubling, log cell kill, and tumor inhibition.
Dosing of all cohorts commenced on Day 0 when the mean tumor volume of all cohorts was between about 100 to 200 cubic millimeters.

The subject of experiment [4] is syngeneic A20 lymphoma tumors. The experiment in a line: Syngeneic A20 lymphoma tumor model. It counts as in vivo, Balb/c mice. The note with it: Compound 3 25 and 50 mg/kg or Formula A 75 mg/kg po qd x21. The protocol: The efficacy of the combinations of the invention may be measured in vivo by implanting allografts or xenografts of cancer cells in rodents and treating the tumor-bearing animals with the combinations. […] Subject mice were treated with drug(s) or control (Vehicle) and monitored over several weeks or more to measure the time to tumor doubling, log cell kill, and tumor inhibition.
Dosing of all cohorts commenced on Day 0 when the mean tumor volume of all cohorts was between […]. […] At the conclusion of this study, femurs were collected and histological analysis of the bone marrow was conducted, and peripheral blood was collected for determination of blood cell counts.

Experiment [5] relates to MM1.s multiple myeloma xenografts. The experiment can be described thus: MM1.s multiple myeloma xenograft. The note with it: Formula A 75 mg/kg po qd, day 18; compared with Compound 3 50 mg/kg. It is filed as in vivo, SCID mice. The protocol:
as §1
Dosing of all cohorts commenced on Day 0 when the mean tumor volume of all cohorts was between about 200 to 300 cubic millimeters. […] Formula A was tested at as a single agent at a single dose level of 75 mg/kg for which a lesser TGI was obtained at day 18.

The test system of experiment [6] is multiple myeloma cell line MM.1S. The experiment can be described thus: MM.1S 3 day proliferation assay, single agents and combinations (Cell-Titer Glo). It counts as cell-based. The note with it: FIG. 1. The protocol: The in vitro potency of the combinations of formula I compounds with chemotherapeutic agents was measured by the cell proliferation assay of Example 11 and the results are compiled in Example iii. The CellTiter-Glo® Luminescent Cell Viability Assay (commercially available from Promega Corp., Madison, Wis.) is a homogeneous assay method based on the recombinant expression of Coleoptera luciferase (U.S. Pat. No. 5,583,024; U.S. Pat. No. 5,674,713; U.S. Pat. No. 5,700,670) and determines the number of viable cells in culture based on quantitation of the ATP present, an indicator of metabolically active cells (Crouch et al (1993) J. Immunol. Meth. 160:81-88; U.S. Pat. No. 6,602,677). The CellTiter-Glo® Assay was conducted in 96 or 384 well format, making it amenable to automated high-throughput screening (HTS) (Cree et al (1995) AntiCancer Drugs 6:398-404). The homogeneous assay procedure involves adding the single reagent (CellTiter-Glo® Reagent) directly to cells cultured in serum-supplemented medium. Cell washing, removal of medium and multiple pipetting steps are not required. The system detects as few as 15 cells/well in a 384-well format in 10 minutes after adding reagent and mixing.
The homogeneous “add-mix-measure” format results in cell lysis and generation of a luminescent signal proportional to the amount of ATP present. […] Viable cells are reflected in relative luminescence units (RLU). […] Data can be recorded by luminometer or CCD camera imaging device. The luminescence output is presented as relative light units (RLU), measured over time.
The combination index (CI) score is calculated by the Chou and Talalay method (Chou, T. and Talalay, P. (1984) Adv. Enzyme Regul. 22:27-55). […] The strength of synergy is assessed according to Chou and Talalay. […]
The in vitro cell survival and proliferation assay (Cell-Titer Glo, Promega) measured viable cells over varying inhibitor concentrations (10^−3 to 10 μMolar, Relative Units, wherein a Relative Unit equals 0.3 micromolar for Compound 3, 0.3 micromolar for Formula A, and 0.1 micromolar for Formula B). […]

The test system of experiment [7] is prostate cancer cell line PC3. The experiment in a line: Cell Titer Glo proliferation and survival assay, PC3. It is filed as cell-based. The note with it: PC3, FIG. 5. An excerpt: The results obtained here are representative of a subset of prostate cell lines tested.
A further experiment has as its target T1, PIM1 (Homo sapiens, UniProt P11309).
T1 construct: made in house
The experiment can be described thus: Pim-1 kinase enzymatic assay (Caliper LC3000, FAM-Pimtide substrate). It is filed as biochemical. The note with it: 20 pM PIM1, 10 μM ATP, 90 minutes; read-out: PIM1 LC3K (Ki).

The next experiment addresses T2, PIM2 (Homo sapiens, UniProt Q9P1W9).
T2 construct: made in house
The experiment can be described thus: Pim-2 kinase enzymatic assay (Caliper LC3000, FAM-Pimtide substrate). It is filed as biochemical. The note with it: 50 pM PIM2, 10 μM ATP, 90 minutes; read-out: PIM2 LC3K (Ki).

The target of another experiment is T3, PIM3 (Homo sapiens, UniProt Q86V86).
T3 construct: made in house
The experiment can be described thus: Pim-3 kinase enzymatic assay (Caliper LC3000, FAM-Pimtide substrate). It is filed as biochemical. The note with it: 55 pM PIM3, 10 μM ATP, 90 minutes; read-out: PIM3 LC3K (Ki).

Setting [8] is: incubated overnight, read-out: Prolif BaF3_PIM1 (IC50).
The mark [9] stands for this setting: incubated overnight, read-out: Prolif BaF3_PIM2 (IC50).
The mark [10] stands for this setting: 72 hours, read-out: Prolif MM1S ATP (EC50).

Sequence of BaF3 PIM1 cells (P11309 whole entry, change not shown): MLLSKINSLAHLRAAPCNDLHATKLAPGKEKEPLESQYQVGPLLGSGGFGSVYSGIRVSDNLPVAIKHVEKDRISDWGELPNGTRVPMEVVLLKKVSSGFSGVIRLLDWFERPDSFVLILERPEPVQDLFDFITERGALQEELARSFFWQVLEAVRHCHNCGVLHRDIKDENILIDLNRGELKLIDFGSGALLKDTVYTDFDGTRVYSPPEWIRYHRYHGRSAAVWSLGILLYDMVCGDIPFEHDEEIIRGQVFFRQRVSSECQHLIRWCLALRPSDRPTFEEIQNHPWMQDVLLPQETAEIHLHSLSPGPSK
Sequence of BaF3 PIM2 cells (Q9P1W9 whole entry, change not shown): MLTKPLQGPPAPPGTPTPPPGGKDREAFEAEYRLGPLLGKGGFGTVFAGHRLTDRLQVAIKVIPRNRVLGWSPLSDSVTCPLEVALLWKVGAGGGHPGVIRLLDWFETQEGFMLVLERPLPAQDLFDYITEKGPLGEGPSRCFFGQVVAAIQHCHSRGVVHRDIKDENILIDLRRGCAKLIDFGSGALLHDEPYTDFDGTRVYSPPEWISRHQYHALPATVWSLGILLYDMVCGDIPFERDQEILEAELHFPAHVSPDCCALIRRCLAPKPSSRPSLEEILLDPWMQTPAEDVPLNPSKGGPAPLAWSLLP
T1 sequence (P11309 whole entry): as the sequence (P11309 whole entry, change not shown) above
T2 sequence (Q9P1W9 whole entry): as the sequence (Q9P1W9 whole entry, change not shown) above

For the compound `O=C(Nc1c[nH]c2ncccc12)c1cnn2ccc(NCCc3ccccc3)nc12` [Compound PIMi, 5-(phenethylamino)-N-(1H-pyrrolo[2,3-b]pyridine-3-yl)pyrazolo[1,5-a]pyrimidine-3-carboxamide, reference compound], the IC50 with EOL-1 was 400 nM; in the experiment with BaF3 parental cells, 12000 nM; in experiment [1], greater than 5000 nM. Besides, the GI50 on BaF3 PIM1 cells (Table 3, read-out: BaF3-Pim1) was 400 nM; on BaF3 PIM2 cells (Table 3, read-out: BaF3-Pim2), greater than 20000 nM. In the experiment with MM1.S cells (Table 3, read-out: MM1.s), the EC50 was greater than 20000 nM.
As to `CS(=O)(=O)N1CCN(Cc2cc3nc(-c4cccc5[nH]ncc45)nc(N4CCOCC4)c3s2)CC1` [Formula A, 4-(2-(1H-indazol-4-yl)-6-((4-(methylsulfonyl)piperazin-1-yl)methyl)thieno[3,2-d]pyrimidin-4-yl)morpholine, reference compound], the “activity on primary cancer cell isolates” value in [2] was “only limited single agent activity”. Besides, the “tumor growth inhibition (TGI)” value in experiment [3] came out at 40%. In addition, the “effect on tumor growth, single agents” value in experiment [4] is “no significant effect on tumor growth”. In addition, in [5], the “tumor growth inhibition (TGI), in words” value is recorded as “lesser TGI”. Further, the “lowest level reached by dose-response curve, of control value” in [6] is “about 0%”. The same compound yielded an IC50 in experiment [7] of roughly 300 nM.
Consider `Cc1c(CN2CCN(C(=O)[C@H](C)O)CC2)sc2c(N3CCOCC3)nc(-c3cnc(N)nc3)nc12` [Formula B, (S)-1-(4-((2-(2-aminopyrimidin-5-yl)-7-methyl-4-morpholinothieno[3,2-d]pyrimidin-6-yl)methyl)piperazin-1-yl)-2-hydroxypropan-1-one], for which the “lowest level reached by dose-response curve, of control value” in experiment [6] is listed as “about 0%”.
`Nc1sc(-c2cc(Br)ccc2F)nc1C(=O)Nc1cnccc1N1CCC[C@H](N)C1` [Example 4, (S)-5-amino-N-(4-(3-aminopiperidin-1-yl)pyridin-3-yl)-2-(5-bromo-2-fluorophenyl)thiazole-4-carboxamide]: the Ki was 0.023 nM on PIM1, 0.154 nM at PIM2 and 0.026 nM on PIM3. For the same compound, the figures for the GI50 on BaF3 PIM1 cells (setting [8]) and on BaF3 PIM2 cells (setting [9]) were 55.8 nM and greater than 2500 nM, respectively. Moreover, the EC50 in the experiment with MM1.S cells (setting [10]) was 160 nM.
For the compound `COc1ccccc1-c1nc(C(=O)Nc2cnccc2N2CCC[C@H](N)C2)c(N)s1` [Example 39, (S)-5-amino-N-(4-(3-aminopiperidin-1-yl)pyridin-3-yl)-2-(2-methoxyphenyl)thiazole-4-carboxamide], the figures for the Ki at PIM1, on PIM2 and at PIM3 were 0.306 nM, 1.69 nM and 0.143 nM, respectively. For the same compound, the GI50 on BaF3 PIM1 cells (setting [8]) came to 375 nM; on BaF3 PIM2 cells (setting [9]), 5100 nM. The EC50 in the experiment with MM1.S cells (setting [10]) was determined as 3200 nM.

The term IC50 denotes the point on the concentration scale where inhibition reaches its midpoint. Broadly, the Ki is the dissociation constant of the complex between target and ligand, obtained from inhibition or displacement.

The values above are taken from US8435976B2, “4-substituted pyridin-3-yl-carboxamide compounds and methods of use” (F. Hoffmann-La Roche, priority 2009, dated 2013).
